Laboratory results: BigSolDB 2.1

CC(N)=S
solubility (mole fraction) (in 2-butanone, 272.85 K): 0.137
solubility (mole fraction) (in 2-butanone, 279.35 K): 0.157
solubility (mole fraction) (in 2-butanone, 282.55 K): 0.167
solubility (mole fraction) (in 2-butanone, 287.95 K): 0.185
solubility (mole fraction) (in 2-butanone, 293.35 K): 0.205
solubility (mole fraction) (in 2-butanone, 297.85 K): 0.223
solubility (mole fraction) (in 2-butanone, 303.05 K): 0.244
solubility (mole fraction) (in 2-butanone, 308.55 K): 0.268
solubility (mole fraction) (in 2-butanone, 313.15 K): 0.289
solubility (mole fraction) (in 2-butanone, 318.05 K): 0.312
solubility (mole fraction) (in 2-butanone, 323.95 K): 0.343
solubility (mole fraction) (in 2-pentanone, 272.85 K): 0.111
solubility (mole fraction) (in 2-pentanone, 279.35 K): 0.127
solubility (mole fraction) (in 2-pentanone, 282.55 K): 0.136
solubility (mole fraction) (in 2-pentanone, 287.95 K): 0.152
solubility (mole fraction) (in 2-pentanone, 293.35 K): 0.169
solubility (mole fraction) (in 2-pentanone, 297.85 K): 0.183
solubility (mole fraction) (in 2-pentanone, 303.05 K): 0.202
solubility (mole fraction) (in 2-pentanone, 308.55 K): 0.222
solubility (mole fraction) (in 2-pentanone, 313.15 K): 0.24
solubility (mole fraction) (in 2-pentanone, 318.05 K): 0.26
solubility (mole fraction) (in 2-pentanone, 323.95 K): 0.286
solubility (mole fraction) (in acetone, 272.85 K): 0.144
solubility (mole fraction) (in acetone, 279.35 K): 0.165
solubility (mole fraction) (in acetone, 282.55 K): 0.176
solubility (mole fraction) (in acetone, 287.95 K): 0.195
solubility (mole fraction) (in acetone, 293.35 K): 0.216
solubility (mole fraction) (in acetone, 297.85 K): 0.234
solubility (mole fraction) (in acetone, 303.05 K): 0.257
solubility (mole fraction) (in acetone, 308.55 K): 0.282
solubility (mole fraction) (in acetone, 313.15 K): 0.304
solubility (mole fraction) (in acetone, 318.05 K): 0.329
solubility (mole fraction) (in acetone, 323.95 K): 0.36
solubility (mole fraction) (in acetonitrile, 272.85 K): 0.0478
solubility (mole fraction) (in acetonitrile, 279.35 K): 0.061
solubility (mole fraction) (in acetonitrile, 282.55 K): 0.0685
solubility (mole fraction) (in acetonitrile, 287.95 K): 0.0828
solubility (mole fraction) (in acetonitrile, 293.35 K): 0.0993
solubility (mole fraction) (in acetonitrile, 297.85 K): 0.115
solubility (mole fraction) (in acetonitrile, 303.05 K): 0.136
solubility (mole fraction) (in acetonitrile, 308.55 K): 0.16
solubility (mole fraction) (in acetonitrile, 313.15 K): 0.184
solubility (mole fraction) (in acetonitrile, 318.05 K): 0.211
solubility (mole fraction) (in acetonitrile, 323.95 K): 0.249
solubility (mole fraction) (in ethanol, 273.15 K): 0.064
solubility (mole fraction) (in ethanol, 277.95 K): 0.0752
solubility (mole fraction) (in ethanol, 283.45 K): 0.0901
solubility (mole fraction) (in ethanol, 288.25 K): 0.105
solubility (mole fraction) (in ethanol, 293.25 K): 0.122
solubility (mole fraction) (in ethanol, 298.15 K): 0.141
solubility (mole fraction) (in ethanol, 302.35 K): 0.159
solubility (mole fraction) (in ethanol, 308.05 K): 0.186
solubility (mole fraction) (in ethanol, 313.35 K): 0.214
solubility (mole fraction) (in ethanol, 318.25 K): 0.243
solubility (mole fraction) (in ethanol, 323.15 K): 0.274
solubility (mole fraction) (in ethyl acetate, 272.85 K): 0.0646
solubility (mole fraction) (in ethyl acetate, 279.35 K): 0.0773
solubility (mole fraction) (in ethyl acetate, 282.55 K): 0.0843
solubility (mole fraction) (in ethyl acetate, 287.95 K): 0.0969
solubility (mole fraction) (in ethyl acetate, 293.35 K): 0.111
solubility (mole fraction) (in ethyl acetate, 297.85 K): 0.124
solubility (mole fraction) (in ethyl acetate, 303.05 K): 0.14
solubility (mole fraction) (in ethyl acetate, 308.55 K): 0.158
solubility (mole fraction) (in ethyl acetate, 313.15 K): 0.175
solubility (mole fraction) (in ethyl acetate, 318.05 K): 0.194
solubility (mole fraction) (in ethyl acetate, 323.95 K): 0.219
solubility (mole fraction) (in ethyl formate, 272.85 K): 0.0427
solubility (mole fraction) (in ethyl formate, 279.35 K): 0.0536
solubility (mole fraction) (in ethyl formate, 282.55 K): 0.0596
solubility (mole fraction) (in ethyl formate, 287.95 K): 0.0711
solubility (mole fraction) (in ethyl formate, 293.35 K): 0.0843
solubility (mole fraction) (in ethyl formate, 297.85 K): 0.0965
solubility (mole fraction) (in ethyl formate, 303.05 K): 0.113
solubility (mole fraction) (in ethyl formate, 308.55 K): 0.131
solubility (mole fraction) (in ethyl formate, 313.15 K): 0.149
solubility (mole fraction) (in ethyl formate, 318.05 K): 0.17
solubility (mole fraction) (in ethyl formate, 323.95 K): 0.198
solubility (mole fraction) (in isobutanol, 273.15 K): 0.0323
solubility (mole fraction) (in isobutanol, 277.95 K): 0.0401
solubility (mole fraction) (in isobutanol, 283.45 K): 0.0508
solubility (mole fraction) (in isobutanol, 288.25 K): 0.0621
solubility (mole fraction) (in isobutanol, 293.25 K): 0.0761
solubility (mole fraction) (in isobutanol, 298.15 K): 0.0922
solubility (mole fraction) (in isobutanol, 302.35 K): 0.108
solubility (mole fraction) (in isobutanol, 308.05 K): 0.133
solubility (mole fraction) (in isobutanol, 313.35 K): 0.16
solubility (mole fraction) (in isobutanol, 318.25 K): 0.189
solubility (mole fraction) (in isobutanol, 323.15 K): 0.223
solubility (mole fraction) (in isopentanol, 273.15 K): 0.0333
solubility (mole fraction) (in isopentanol, 277.95 K): 0.0415
solubility (mole fraction) (in isopentanol, 283.45 K): 0.0528
solubility (mole fraction) (in isopentanol, 288.25 K): 0.0648
solubility (mole fraction) (in isopentanol, 293.25 K): 0.0796
solubility (mole fraction) (in isopentanol, 298.15 K): 0.0968
solubility (mole fraction) (in isopentanol, 302.35 K): 0.114
solubility (mole fraction) (in isopentanol, 308.05 K): 0.141
solubility (mole fraction) (in isopentanol, 313.35 K): 0.171
solubility (mole fraction) (in isopentanol, 318.25 K): 0.203
solubility (mole fraction) (in isopentanol, 323.15 K): 0.239
solubility (mole fraction) (in isopropanol, 273.15 K): 0.0439
solubility (mole fraction) (in isopropanol, 277.95 K): 0.0532
solubility (mole fraction) (in isopropanol, 283.45 K): 0.066
solubility (mole fraction) (in isopropanol, 288.25 K): 0.0792
solubility (mole fraction) (in isopropanol, 293.25 K): 0.0949
solubility (mole fraction) (in isopropanol, 298.15 K): 0.113
solubility (mole fraction) (in isopropanol, 302.35 K): 0.13
solubility (mole fraction) (in isopropanol, 308.05 K): 0.158
solubility (mole fraction) (in isopropanol, 313.35 K): 0.186
solubility (mole fraction) (in isopropanol, 318.25 K): 0.216
solubility (mole fraction) (in isopropanol, 323.15 K): 0.251
solubility (mole fraction) (in methanol, 273.15 K): 0.0894
solubility (mole fraction) (in methanol, 277.95 K): 0.104
solubility (mole fraction) (in methanol, 283.45 K): 0.123
solubility (mole fraction) (in methanol, 288.25 K): 0.141
solubility (mole fraction) (in methanol, 293.25 K): 0.163
solubility (mole fraction) (in methanol, 298.15 K): 0.186
solubility (mole fraction) (in methanol, 302.35 K): 0.208
solubility (mole fraction) (in methanol, 308.05 K): 0.241
solubility (mole fraction) (in methanol, 313.35 K): 0.275
solubility (mole fraction) (in methanol, 318.25 K): 0.31
solubility (mole fraction) (in methanol, 323.15 K): 0.348
solubility (mole fraction) (in methyl acetate, 272.85 K): 0.0603
solubility (mole fraction) (in methyl acetate, 279.35 K): 0.074
solubility (mole fraction) (in methyl acetate, 282.55 K): 0.0815
solubility (mole fraction) (in methyl acetate, 287.95 K): 0.0957
solubility (mole fraction) (in methyl acetate, 293.35 K): 0.112
solubility (mole fraction) (in methyl acetate, 297.85 K): 0.126
solubility (mole fraction) (in methyl acetate, 303.05 K): 0.145
solubility (mole fraction) (in methyl acetate, 308.55 K): 0.167
solubility (mole fraction) (in methyl acetate, 313.15 K): 0.187
solubility (mole fraction) (in methyl acetate, 318.05 K): 0.211
solubility (mole fraction) (in methyl acetate, 323.95 K): 0.242
solubility (mole fraction) (in n-butanol, 273.15 K): 0.0417
solubility (mole fraction) (in n-butanol, 277.95 K): 0.0524
solubility (mole fraction) (in n-butanol, 283.45 K): 0.0674
solubility (mole fraction) (in n-butanol, 288.25 K): 0.0833
solubility (mole fraction) (in n-butanol, 293.25 K): 0.103
solubility (mole fraction) (in n-butanol, 298.15 K): 0.126
solubility (mole fraction) (in n-butanol, 302.35 K): 0.149
solubility (mole fraction) (in n-butanol, 308.05 K): 0.186
solubility (mole fraction) (in n-butanol, 313.35 K): 0.227
solubility (mole fraction) (in n-butanol, 318.25 K): 0.271
solubility (mole fraction) (in n-butanol, 323.15 K): 0.321
solubility (mole fraction) (in n-pentanol, 273.15 K): 0.0507
solubility (mole fraction) (in n-pentanol, 277.95 K): 0.0598
solubility (mole fraction) (in n-pentanol, 283.45 K): 0.0716
solubility (mole fraction) (in n-pentanol, 288.25 K): 0.0835
solubility (mole fraction) (in n-pentanol, 293.25 K): 0.0975
solubility (mole fraction) (in n-pentanol, 298.15 K): 0.113
solubility (mole fraction) (in n-pentanol, 302.35 K): 0.127
solubility (mole fraction) (in n-pentanol, 308.05 K): 0.149
solubility (mole fraction) (in n-pentanol, 313.35 K): 0.172
solubility (mole fraction) (in n-pentanol, 318.25 K): 0.196
solubility (mole fraction) (in n-pentanol, 323.15 K): 0.222
solubility (mole fraction) (in n-propanol, 273.15 K): 0.0503
solubility (mole fraction) (in n-propanol, 277.95 K): 0.0608
solubility (mole fraction) (in n-propanol, 283.45 K): 0.0748
solubility (mole fraction) (in n-propanol, 288.25 K): 0.0891
solubility (mole fraction) (in n-propanol, 293.25 K): 0.106
solubility (mole fraction) (in n-propanol, 298.15 K): 0.126
solubility (mole fraction) (in n-propanol, 302.35 K): 0.144
solubility (mole fraction) (in n-propanol, 308.05 K): 0.173
solubility (mole fraction) (in n-propanol, 313.35 K): 0.203
solubility (mole fraction) (in n-propanol, 318.25 K): 0.236
solubility (mole fraction) (in n-propanol, 323.15 K): 0.272
